{"source": "PubChem BioAssay AID1259407", "about": "(Chemical Carcinogenesis Research Information System (CCRIS), 2018)", "system": "CCRIS mutagenicity, Ames/micronucleus/aberration tests", "experiment": "CCRIS mutagenicity studies", "key": {"[1]": {"conditions": "Test System: AMES SALMONELLA TYPHIMURIUM, Strain/Indicator: TA98, Metabolic Activation: NONE, Method: STANDARD PLATE"}, "[2]": {"conditions": "Test System: AMES SALMONELLA TYPHIMURIUM, Strain/Indicator: TA98, Metabolic Activation: RAT, LIVER, S-9, AROCLOR 1254, Method: STANDARD PLATE"}, "[3]": {"conditions": "Test System: AMES SALMONELLA TYPHIMURIUM, Strain/Indicator: TA100, Metabolic Activation: NONE, Method: STANDARD PLATE"}, "[4]": {"conditions": "Test System: AMES SALMONELLA TYPHIMURIUM, Strain/Indicator: TA100, Metabolic Activation: RAT, LIVER, S-9, AROCLOR 1254, Method: STANDARD PLATE"}, "[5]": {"conditions": "Test System: AMES SALMONELLA TYPHIMURIUM, Strain/Indicator: TA1535, Metabolic Activation: NONE, Method: STANDARD PLATE"}, "[6]": {"conditions": "Test System: AMES SALMONELLA TYPHIMURIUM, Strain/Indicator: TA1535, Metabolic Activation: RAT, LIVER, S-9, AROCLOR 1254, Method: STANDARD PLATE"}, "[7]": {"conditions": "Test System: AMES SALMONELLA TYPHIMURIUM, Strain/Indicator: TA1538, Metabolic Activation: NONE, Method: STANDARD PLATE"}, "[8]": {"conditions": "Test System: AMES SALMONELLA TYPHIMURIUM, Strain/Indicator: TA1538, Metabolic Activation: RAT, LIVER, S-9, AROCLOR 1254, Method: STANDARD PLATE"}}, "note": "The source made the active and inactive calls. No rule for the calls is given here.", "data": [{"molecule": "Nc1ccc2c(c1)Cc1cc([N+](=O)[O-])ccc1-2", "values": [{"measurement": "mutagenic call", "setting": "Test System: AMES SALMONELLA TYPHIMURIUM, Strain/Indicator: TA98, Metabolic Activation: HAMSTER, LIVER, S-9, 3-METHYLCHOLANTHRENE, Method: STANDARD PLATE", "result": "active; positive"}, {"measurement": "mutagenic call", "setting": "Test System: AMES SALMONELLA TYPHIMURIUM, Strain/Indicator: TA98, Metabolic Activation: HAMSTER, LIVER, S-9, Method: STANDARD PLATE", "result": "active; positive"}]}, {"molecule": "C=CC(=O)OCCOCCOC(=O)C=C", "values": [{"measurement": "mutagenic call", "setting": "[1]", "result": "inactive; negative"}, {"measurement": "mutagenic call", "setting": "[2]", "result": "inactive; negative"}, {"measurement": "mutagenic call", "setting": "Test System: AMES SALMONELLA TYPHIMURIUM, Strain/Indicator: TA98, Metabolic Activation: RAT, LIVER, S-9, SODIUM PHENOBARBITAL, Method: STANDARD PLATE", "result": "inactive; negative"}, {"measurement": "mutagenic call", "setting": "[3]", "result": "inactive; negative"}, {"measurement": "mutagenic call", "setting": "[4]", "result": "inactive; negative"}, {"measurement": "mutagenic call", "setting": "Test System: AMES SALMONELLA TYPHIMURIUM, Strain/Indicator: TA100, Metabolic Activation: RAT, LIVER, S-9, SODIUM PHENOBARBITAL, Method: STANDARD PLATE", "result": "inactive; negative"}, {"measurement": "mutagenic call", "setting": "[5]", "result": "inactive; negative"}, {"measurement": "mutagenic call", "setting": "[6]", "result": "inactive; negative"}, {"measurement": "mutagenic call", "setting": "Test System: AMES SALMONELLA TYPHIMURIUM, Strain/Indicator: TA1535, Metabolic Activation: RAT, LIVER, S-9, SODIUM PHENOBARBITAL, Method: STANDARD PLATE", "result": "inactive; negative"}, {"measurement": "mutagenic call", "setting": "Test System: AMES SALMONELLA TYPHIMURIUM, Strain/Indicator: TA1537, Metabolic Activation: NONE, Method: STANDARD PLATE", "result": "inactive; negative"}, {"measurement": "mutagenic call", "setting": "Test System: AMES SALMONELLA TYPHIMURIUM, Strain/Indicator: TA1537, Metabolic Activation: RAT, LIVER, S-9, AROCLOR 1254, Method: STANDARD PLATE", "result": "inactive; negative"}, {"measurement": "mutagenic call", "setting": "Test System: AMES SALMONELLA TYPHIMURIUM, Strain/Indicator: TA1537, Metabolic Activation: RAT, LIVER, S-9, SODIUM PHENOBARBITAL, Method: STANDARD PLATE", "result": "inactive; negative"}, {"measurement": "mutagenic call", "setting": "[7]", "result": "inactive; negative"}, {"measurement": "mutagenic call", "setting": "[8]", "result": "inactive; negative"}, {"measurement": "mutagenic call", "setting": "Test System: AMES SALMONELLA TYPHIMURIUM, Strain/Indicator: TA1538, Metabolic Activation: RAT, LIVER, S-9, SODIUM PHENOBARBITAL, Method: STANDARD PLATE", "result": "inactive; negative"}]}, {"molecule": "COC(=O)Nc1nc2ccc(OS(=O)(=O)c3ccc(F)cc3)cc2[nH]1", "values": [{"measurement": "mutagenic call", "setting": "[1]", "result": "inactive; negative"}, {"measurement": "mutagenic call", "setting": "[2]", "result": "inactive; negative"}, {"measurement": "mutagenic call", "setting": "[3]", "result": "inactive; negative"}, {"measurement": "mutagenic call", "setting": "[4]", "result": "inactive; negative"}, {"measurement": "mutagenic call", "setting": "[5]", "result": "inactive; negative"}, {"measurement": "mutagenic call", "setting": "[6]", "result": "inactive; negative"}, {"measurement": "mutagenic call", "setting": "[7]", "result": "inactive; negative"}, {"measurement": "mutagenic call", "setting": "[8]", "result": "inactive; negative"}, {"measurement": "mutagenic call", "setting": "Test System: E. COLI, Strain/Indicator: WP2, Metabolic Activation: NONE, Method: STANDARD PLATE", "result": "inactive; negative"}, {"measurement": "mutagenic call", "setting": "Test System: E. COLI, Strain/Indicator: WP2, Metabolic Activation: RAT, LIVER, S-9, AROCLOR 1254, Method: STANDARD PLATE", "result": "inactive; negative"}, {"measurement": "mutagenic call", "setting": "Test System: E. COLI, Strain/Indicator: WP2 UVRA (PKM101), Metabolic Activation: NONE, Method: STANDARD PLATE", "result": "inactive; negative"}, {"measurement": "mutagenic call", "setting": "Test System: E. COLI, Strain/Indicator: WP2 UVRA (PKM101), Metabolic Activation: RAT, LIVER, S-9, AROCLOR 1254, Method: STANDARD PLATE", "result": "inactive; negative"}, {"measurement": "mutagenic call", "setting": "Test System: E. COLI, Strain/Indicator: WP2 UVRA, Metabolic Activation: NONE, Method: STANDARD PLATE", "result": "inactive; negative"}, {"measurement": "mutagenic call", "setting": "Test System: E. COLI, Strain/Indicator: WP2 UVRA, Metabolic Activation: RAT, LIVER, S-9, AROCLOR 1254, Method: STANDARD PLATE", "result": "inactive; negative"}]}, {"molecule": "Cc1cccc(CN(C)N=O)c1", "values": [{"measurement": "mutagenic call", "setting": "Test System: AMES SALMONELLA TYPHIMURIUM, Strain/Indicator: TA1535, Metabolic Activation: HAMSTER, LIVER, S-9, AROCLOR 1254, Method: STANDARD PLATE", "result": "active; positive"}, {"measurement": "mutagenic call", "setting": "[5]", "result": "inactive; negative"}]}, {"molecule": "O=c1[nH]c(=O)n([C@H]2C[C@H](O)[C@@H](CO)O2)cc1I", "values": [{"measurement": "mutagenic call", "setting": "Test System: AMES SALMONELLA TYPHIMURIUM, Strain/Indicator: TA97, Metabolic Activation: NONE, Method: PREINCUBATION", "result": "inactive; negative"}, {"measurement": "mutagenic call", "setting": "Test System: AMES SALMONELLA TYPHIMURIUM, Strain/Indicator: TA97, Metabolic Activation: RAT, LIVER, S-9, AROCLOR 1254, Method: PREINCUBATION", "result": "inactive; negative"}, {"measurement": "mutagenic call", "setting": "Test System: AMES SALMONELLA TYPHIMURIUM, Strain/Indicator: TA98, Metabolic Activation: NONE, Method: PREINCUBATION", "result": "inactive; negative"}, {"measurement": "mutagenic call", "setting": "Test System: AMES SALMONELLA TYPHIMURIUM, Strain/Indicator: TA98, Metabolic Activation: RAT, LIVER, S-9, AROCLOR 1254, Method: PREINCUBATION", "result": "inactive; negative"}, {"measurement": "mutagenic call", "setting": "Test System: AMES SALMONELLA TYPHIMURIUM, Strain/Indicator: TA100, Metabolic Activation: NONE, Method: PREINCUBATION", "result": "inactive; negative"}, {"measurement": "mutagenic call", "setting": "Test System: AMES SALMONELLA TYPHIMURIUM, Strain/Indicator: TA100, Metabolic Activation: RAT, LIVER, S-9, AROCLOR 1254, Method: PREINCUBATION", "result": "inactive; negative"}, {"measurement": "mutagenic call", "setting": "Test System: AMES SALMONELLA TYPHIMURIUM, Strain/Indicator: TA102, Metabolic Activation: NONE, Method: PREINCUBATION", "result": "inactive; negative"}, {"measurement": "mutagenic call", "setting": "Test System: AMES SALMONELLA TYPHIMURIUM, Strain/Indicator: TA102, Metabolic Activation: RAT, LIVER, S-9, AROCLOR 1254, Method: PREINCUBATION", "result": "inactive; negative"}, {"measurement": "mutagenic call", "setting": "Test System: AMES SALMONELLA TYPHIMURIUM, Strain/Indicator: TA104, Metabolic Activation: NONE, Method: PREINCUBATION", "result": "inactive; negative"}, {"measurement": "mutagenic call", "setting": "Test System: AMES SALMONELLA TYPHIMURIUM, Strain/Indicator: TA104, Metabolic Activation: RAT, LIVER, S-9, AROCLOR 1254, Method: PREINCUBATION", "result": "inactive; negative"}, {"measurement": "mutagenic call", "setting": "Test System: AMES SALMONELLA TYPHIMURIUM, Strain/Indicator: TA1535, Metabolic Activation: NONE, Method: PREINCUBATION", "result": "inactive; negative"}, {"measurement": "mutagenic call", "setting": "Test System: AMES SALMONELLA TYPHIMURIUM, Strain/Indicator: TA1535, Metabolic Activation: RAT, LIVER, S-9, AROCLOR 1254, Method: PREINCUBATION", "result": "inactive; negative"}, {"measurement": "mutagenic call", "setting": "Test System: AMES SALMONELLA TYPHIMURIUM, Strain/Indicator: TA1537, Metabolic Activation: NONE, Method: PREINCUBATION", "result": "inactive; negative"}, {"measurement": "mutagenic call", "setting": "Test System: AMES SALMONELLA TYPHIMURIUM, Strain/Indicator: TA1537, Metabolic Activation: RAT, LIVER, S-9, AROCLOR 1254, Method: PREINCUBATION", "result": "inactive; negative"}, {"measurement": "mutagenic call", "setting": "Test System: AMES SALMONELLA TYPHIMURIUM, Strain/Indicator: TA1538, Metabolic Activation: NONE, Method: PREINCUBATION", "result": "inactive; negative"}, {"measurement": "mutagenic call", "setting": "Test System: AMES SALMONELLA TYPHIMURIUM, Strain/Indicator: TA1538, Metabolic Activation: RAT, LIVER, S-9, AROCLOR 1254, Method: PREINCUBATION", "result": "inactive; negative"}, {"measurement": "mutagenic call", "setting": "Test System: CHINESE HAMSTER V-79, Strain/Indicator: V-79/8-AZAGUANINE, Metabolic Activation: NONE", "result": "active; positive"}, {"measurement": "mutagenic call", "setting": "Test System: UDS RODENT HEPATOCYTES, Strain/Indicator: THY INCORP, Metabolic Activation: NONE", "result": "inactive; negative"}]}]}
